Results: the kinase profiling compilation of Christmann-Franck et al. (2016)

Assays:
Assay in all cases: KINOMEscan competition binding
Conditions in all cases: compound 10.0 µM
[1] = test system: ABL1 (human), P00519 [M351T]
CAMKK1 (human) = CAMKK1 (human) (UniProt Q8N5S9)
CDC42BPG (human) = CDC42BPG (human) (UniProt Q6DT37)
CDK11B (human) = CDK11B (human) (UniProt P21127)
CDK17 (human) = CDK17 (human) (UniProt Q00537)
CDK3 (human) = CDK3 (human) (UniProt Q00526)
CDK8 (human) = CDK8 (human) (UniProt P49336)
DCLK3 (human) = DCLK3 (human) (UniProt Q9C098)
[2] = test system: EIF2AK4 KD2 (human), Q9P2K8 [S808G]
EPHA1 (human) = EPHA1 (human) (UniProt P21709)
EPHA8 (human) = EPHA8 (human) (UniProt P29322)
FGFR2 (human) = FGFR2 (human) (UniProt P21802)
FGFR3 (human) = FGFR3 (human) (UniProt P22607)
FGR (human) = FGR (human) (UniProt P09769)
GAK (human) = GAK (human) (UniProt O14976)
[3] = test system: KIT (human), P10721 [D816V]
LIMK1 (human) = LIMK1 (human) (UniProt P53667)
MAP4K2 (human) = MAP4K2 (human) (UniProt Q12851)
MAP4K4 (human) = MAP4K4 (human) (UniProt O95819)
MAPK10 (human) = MAPK10 (human) (UniProt P53779)
MLTK (human) = MLTK (human) (UniProt Q9NYL2)
MYO3B (human) = MYO3B (human) (UniProt Q8WXR4)
NEK5 (human) = NEK5 (human) (UniProt Q6P3R8)
NTRK3 (human) = NTRK3 (human) (UniProt Q16288)
PIP5K1A (human) = PIP5K1A (human) (UniProt Q99755)
PKN1 (human) = PKN1 (human) (UniProt Q16512)
PKN2 (human) = PKN2 (human) (UniProt Q16513)
PRKAA2 (human) = PRKAA2 (human) (UniProt P54646)
PRKCE (human) = PRKCE (human) (UniProt Q02156)
PRKG2 (human) = PRKG2 (human) (UniProt Q13237)
PTK2B (human) = PTK2B (human) (UniProt Q14289)
RPS6KA4 KD2 (human) = RPS6KA4 KD2 (human) (UniProt O75676)
RPS6KA6 KD1 (human) = RPS6KA6 KD1 (human) (UniProt Q9UK32)
STK10 (human) = STK10 (human) (UniProt O94804)
STK16 (human) = STK16 (human) (UniProt O75716)
STK24 (human) = STK24 (human) (UniProt Q9Y6E0)
STK38L (human) = STK38L (human) (UniProt Q9Y2H1)
STK4 (human) = STK4 (human) (UniProt Q13043)
TNK1 (human) = TNK1 (human) (UniProt Q13470)
[4] = target: TYK2 JH1 catalytic (human) (UniProt P29597)

RPS6KA4 KD2 (human), sequence (O75676 whole entry, looked up): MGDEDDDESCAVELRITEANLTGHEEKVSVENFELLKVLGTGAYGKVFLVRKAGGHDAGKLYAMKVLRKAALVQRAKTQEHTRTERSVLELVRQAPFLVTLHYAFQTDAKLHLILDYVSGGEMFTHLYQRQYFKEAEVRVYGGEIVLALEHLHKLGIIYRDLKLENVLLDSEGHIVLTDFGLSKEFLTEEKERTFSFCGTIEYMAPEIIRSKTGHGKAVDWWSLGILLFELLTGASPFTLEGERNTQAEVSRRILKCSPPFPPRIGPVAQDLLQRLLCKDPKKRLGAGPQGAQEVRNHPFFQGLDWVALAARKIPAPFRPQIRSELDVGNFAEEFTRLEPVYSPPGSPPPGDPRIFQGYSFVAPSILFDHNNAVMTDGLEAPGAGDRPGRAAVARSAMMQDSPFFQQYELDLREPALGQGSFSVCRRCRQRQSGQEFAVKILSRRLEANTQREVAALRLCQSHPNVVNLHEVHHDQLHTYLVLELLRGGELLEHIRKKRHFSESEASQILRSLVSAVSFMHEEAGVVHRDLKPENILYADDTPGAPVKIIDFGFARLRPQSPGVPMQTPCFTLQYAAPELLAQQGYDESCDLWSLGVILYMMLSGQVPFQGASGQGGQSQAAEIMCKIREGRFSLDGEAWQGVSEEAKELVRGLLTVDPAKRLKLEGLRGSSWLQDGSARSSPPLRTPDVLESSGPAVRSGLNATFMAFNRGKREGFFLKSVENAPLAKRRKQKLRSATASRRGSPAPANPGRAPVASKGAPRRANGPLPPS
PRKAA2 (human), sequence (P54646 whole entry, looked up): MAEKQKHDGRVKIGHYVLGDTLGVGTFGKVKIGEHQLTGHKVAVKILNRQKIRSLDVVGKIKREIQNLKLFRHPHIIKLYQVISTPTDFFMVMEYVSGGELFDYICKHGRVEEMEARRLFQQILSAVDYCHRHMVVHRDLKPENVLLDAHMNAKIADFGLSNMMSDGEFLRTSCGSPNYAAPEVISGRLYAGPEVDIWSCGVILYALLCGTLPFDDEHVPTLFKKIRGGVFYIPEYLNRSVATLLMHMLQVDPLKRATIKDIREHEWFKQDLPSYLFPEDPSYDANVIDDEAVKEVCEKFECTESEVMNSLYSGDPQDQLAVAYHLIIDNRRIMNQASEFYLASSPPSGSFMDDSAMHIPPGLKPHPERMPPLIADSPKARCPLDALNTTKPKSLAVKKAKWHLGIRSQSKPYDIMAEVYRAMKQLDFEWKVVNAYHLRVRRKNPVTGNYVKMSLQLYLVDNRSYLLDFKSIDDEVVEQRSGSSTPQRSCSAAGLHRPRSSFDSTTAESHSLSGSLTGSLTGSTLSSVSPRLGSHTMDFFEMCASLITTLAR
CDK8 (human), sequence (P49336 whole entry, looked up): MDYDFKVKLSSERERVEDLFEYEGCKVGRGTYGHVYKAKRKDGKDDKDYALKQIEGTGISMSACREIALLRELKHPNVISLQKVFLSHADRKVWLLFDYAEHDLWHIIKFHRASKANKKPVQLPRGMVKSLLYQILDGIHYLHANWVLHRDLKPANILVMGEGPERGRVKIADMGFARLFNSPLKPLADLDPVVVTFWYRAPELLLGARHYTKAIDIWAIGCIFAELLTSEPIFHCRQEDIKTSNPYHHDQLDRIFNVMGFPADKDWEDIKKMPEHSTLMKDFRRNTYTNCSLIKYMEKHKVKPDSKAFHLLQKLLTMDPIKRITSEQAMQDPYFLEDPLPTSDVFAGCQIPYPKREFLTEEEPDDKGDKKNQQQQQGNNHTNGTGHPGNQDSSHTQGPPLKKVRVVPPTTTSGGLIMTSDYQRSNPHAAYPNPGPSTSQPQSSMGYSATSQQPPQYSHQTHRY
CDK17 (human), sequence (Q00537 whole entry, looked up): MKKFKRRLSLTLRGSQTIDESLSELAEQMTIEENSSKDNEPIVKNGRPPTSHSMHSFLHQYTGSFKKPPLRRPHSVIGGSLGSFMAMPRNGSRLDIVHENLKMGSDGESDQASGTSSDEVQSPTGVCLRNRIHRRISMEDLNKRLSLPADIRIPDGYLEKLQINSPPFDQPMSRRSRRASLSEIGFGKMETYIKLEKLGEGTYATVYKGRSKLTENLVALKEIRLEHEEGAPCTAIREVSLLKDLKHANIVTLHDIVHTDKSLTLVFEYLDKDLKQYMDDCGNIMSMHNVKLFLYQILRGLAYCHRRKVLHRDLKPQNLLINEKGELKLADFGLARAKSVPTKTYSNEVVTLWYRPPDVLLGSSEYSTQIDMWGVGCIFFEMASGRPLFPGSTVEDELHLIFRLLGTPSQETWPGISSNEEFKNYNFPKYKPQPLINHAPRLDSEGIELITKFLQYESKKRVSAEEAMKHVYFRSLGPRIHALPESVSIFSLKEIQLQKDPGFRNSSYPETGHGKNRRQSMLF
MAPK10 (human), sequence (P53779 whole entry, looked up): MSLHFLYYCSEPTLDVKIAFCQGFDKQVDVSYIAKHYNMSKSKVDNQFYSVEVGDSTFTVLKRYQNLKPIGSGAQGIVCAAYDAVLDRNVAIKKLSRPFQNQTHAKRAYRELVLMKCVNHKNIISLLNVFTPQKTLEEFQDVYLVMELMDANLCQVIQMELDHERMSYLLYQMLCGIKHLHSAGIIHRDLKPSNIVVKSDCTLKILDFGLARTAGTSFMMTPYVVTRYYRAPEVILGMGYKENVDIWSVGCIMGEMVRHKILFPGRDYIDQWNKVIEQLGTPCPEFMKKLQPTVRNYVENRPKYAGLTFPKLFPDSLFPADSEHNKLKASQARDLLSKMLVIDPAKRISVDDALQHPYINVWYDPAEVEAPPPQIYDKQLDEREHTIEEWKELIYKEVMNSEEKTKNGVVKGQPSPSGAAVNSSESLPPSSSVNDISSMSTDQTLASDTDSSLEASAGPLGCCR
STK4 (human), sequence (Q13043 whole entry, looked up): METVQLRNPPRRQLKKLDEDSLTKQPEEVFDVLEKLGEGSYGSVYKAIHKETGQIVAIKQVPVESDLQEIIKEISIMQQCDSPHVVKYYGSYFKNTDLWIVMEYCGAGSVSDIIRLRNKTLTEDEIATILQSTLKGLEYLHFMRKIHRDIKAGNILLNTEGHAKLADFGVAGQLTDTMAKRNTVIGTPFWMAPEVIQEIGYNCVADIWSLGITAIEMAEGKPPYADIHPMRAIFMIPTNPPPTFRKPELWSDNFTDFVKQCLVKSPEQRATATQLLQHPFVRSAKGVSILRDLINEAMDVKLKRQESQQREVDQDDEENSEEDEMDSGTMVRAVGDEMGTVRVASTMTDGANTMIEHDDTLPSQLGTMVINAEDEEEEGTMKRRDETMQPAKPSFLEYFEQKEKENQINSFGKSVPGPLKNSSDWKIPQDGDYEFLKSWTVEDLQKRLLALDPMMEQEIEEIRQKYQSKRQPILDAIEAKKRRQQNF
MLTK (human), sequence (Q9NYL2 whole entry, looked up): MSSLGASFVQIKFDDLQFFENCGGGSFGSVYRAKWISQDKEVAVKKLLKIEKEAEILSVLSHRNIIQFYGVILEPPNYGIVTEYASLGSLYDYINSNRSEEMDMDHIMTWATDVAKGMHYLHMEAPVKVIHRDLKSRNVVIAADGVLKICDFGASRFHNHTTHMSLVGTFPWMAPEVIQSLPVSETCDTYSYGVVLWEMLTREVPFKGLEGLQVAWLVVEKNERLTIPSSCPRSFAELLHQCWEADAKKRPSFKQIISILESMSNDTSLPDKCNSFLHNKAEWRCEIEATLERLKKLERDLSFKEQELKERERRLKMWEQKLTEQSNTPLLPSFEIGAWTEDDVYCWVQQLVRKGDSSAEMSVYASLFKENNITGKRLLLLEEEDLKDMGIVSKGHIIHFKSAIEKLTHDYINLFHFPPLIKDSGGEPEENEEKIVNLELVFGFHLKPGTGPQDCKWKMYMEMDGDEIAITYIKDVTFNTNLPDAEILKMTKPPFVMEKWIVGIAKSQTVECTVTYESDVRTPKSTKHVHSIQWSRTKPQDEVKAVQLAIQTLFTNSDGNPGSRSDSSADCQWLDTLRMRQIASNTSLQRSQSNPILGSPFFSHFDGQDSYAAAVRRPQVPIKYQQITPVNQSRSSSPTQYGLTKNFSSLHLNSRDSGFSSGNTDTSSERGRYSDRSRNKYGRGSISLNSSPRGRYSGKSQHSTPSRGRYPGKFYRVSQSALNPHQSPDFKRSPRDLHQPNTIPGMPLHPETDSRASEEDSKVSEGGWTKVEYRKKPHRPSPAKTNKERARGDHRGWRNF
RPS6KA6 KD1 (human), sequence (Q9UK32 whole entry, looked up): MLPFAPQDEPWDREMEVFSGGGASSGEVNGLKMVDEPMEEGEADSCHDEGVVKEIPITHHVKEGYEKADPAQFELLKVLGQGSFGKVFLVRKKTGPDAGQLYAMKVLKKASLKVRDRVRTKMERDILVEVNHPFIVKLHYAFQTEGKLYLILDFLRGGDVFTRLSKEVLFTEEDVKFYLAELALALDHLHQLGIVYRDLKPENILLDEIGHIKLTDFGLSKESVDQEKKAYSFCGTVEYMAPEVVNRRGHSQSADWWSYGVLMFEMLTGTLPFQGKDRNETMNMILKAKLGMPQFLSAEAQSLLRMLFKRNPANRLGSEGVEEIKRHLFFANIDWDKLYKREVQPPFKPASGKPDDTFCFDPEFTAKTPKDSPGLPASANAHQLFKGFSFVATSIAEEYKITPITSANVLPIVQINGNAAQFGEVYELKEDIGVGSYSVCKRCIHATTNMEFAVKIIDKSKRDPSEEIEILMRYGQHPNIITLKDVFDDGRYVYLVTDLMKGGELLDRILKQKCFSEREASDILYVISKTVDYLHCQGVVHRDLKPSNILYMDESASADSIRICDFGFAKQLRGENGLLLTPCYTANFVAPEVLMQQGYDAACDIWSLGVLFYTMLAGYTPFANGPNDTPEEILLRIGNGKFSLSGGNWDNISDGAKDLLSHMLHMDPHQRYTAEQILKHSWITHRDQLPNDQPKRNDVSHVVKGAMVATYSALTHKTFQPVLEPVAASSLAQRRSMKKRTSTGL

SMILES | kinase still bound, per cent of control [1] | kinase still bound, per cent of control (CAMKK1 (human)) | kinase still bound, per cent of control (CDC42BPG (human)) | kinase still bound, per cent of control (CDK11B (human)) | kinase still bound, per cent of control (CDK17 (human)) | kinase still bound, per cent of control (CDK3 (human)) | kinase still bound, per cent of control (CDK8 (human)) | kinase still bound, per cent of control (DCLK3 (human)) | kinase still bound, per cent of control [2] | kinase still bound, per cent of control (EPHA1 (human)) | kinase still bound, per cent of control (EPHA8 (human)) | kinase still bound, per cent of control (FGFR2 (human)) | kinase still bound, per cent of control (FGFR3 (human)) | kinase still bound, per cent of control (FGR (human)) | kinase still bound, per cent of control (GAK (human)) | kinase still bound, per cent of control [3] | kinase still bound, per cent of control (LIMK1 (human)) | kinase still bound, per cent of control (MAP4K2 (human)) | kinase still bound, per cent of control (MAP4K4 (human)) | kinase still bound, per cent of control (MAPK10 (human)) | also measured
OCCCNc1cc(-c2ccnc(Nc3cccc(Cl)c3)n2)ccn1 | 100% | 100% | 100% | 100% | 100% | 100% | 100% | 100% | 100% | 100% | 100% | 100% | 100% | 100% | 100% | 100% | 100% | 100% | 100% | 100% | kinase still bound, per cent of control (MLTK (human)): 100%; kinase still bound, per cent of control (MYO3B (human)): 100%; kinase still bound, per cent of control (NEK5 (human)): 100%; kinase still bound, per cent of control (NTRK3 (human)): 100%; kinase still bound, per cent of control (PIP5K1A (human)): 100%; kinase still bound, per cent of control (PKN1 (human)): 100%; kinase still bound, per cent of control (PKN2 (human)): 100%; kinase still bound, per cent of control (PRKAA2 (human)): 100%; kinase still bound, per cent of control (PRKCE (human)): 100%; kinase still bound, per cent of control (PRKG2 (human)): 100%; kinase still bound, per cent of control (PTK2B (human)): 100%; kinase still bound, per cent of control (RPS6KA4 KD2 (human)): 100%; kinase still bound, per cent of control (RPS6KA6 KD1 (human)): 100%; kinase still bound, per cent of control (STK10 (human)): 100%; kinase still bound, per cent of control (STK16 (human)): 100%; kinase still bound, per cent of control (STK24 (human)): 100%; kinase still bound, per cent of control (STK38L (human)): 100%; kinase still bound, per cent of control (STK4 (human)): 100%; kinase still bound, per cent of control (TNK1 (human)): 100%; kinase still bound, per cent of control [4]: 100%
O=C(NC1CC1)c1cccc(-c2ccc3c(NC(=O)C4CC4)n[nH]c3c2)c1 | 57% | 37% | 62% | 97% | 37% | 7.2% | 76% | 100% | 96% | 98% | 92% | 100% | 100% | 100% | 49% | 97% | 100% | 99% | 84% | 61% | kinase still bound, per cent of control (MLTK (human)): 100%; kinase still bound, per cent of control (MYO3B (human)): 93%; kinase still bound, per cent of control (NEK5 (human)): 60%; kinase still bound, per cent of control (NTRK3 (human)): 44%; kinase still bound, per cent of control (PIP5K1A (human)): 28%; kinase still bound, per cent of control (PKN1 (human)): 100%; kinase still bound, per cent of control (PKN2 (human)): 78%; kinase still bound, per cent of control (PRKAA2 (human)): 45%; kinase still bound, per cent of control (PRKCE (human)): 100%; kinase still bound, per cent of control (PRKG2 (human)): 72%; kinase still bound, per cent of control (PTK2B (human)): 100%; kinase still bound, per cent of control (RPS6KA4 KD2 (human)): 100%; kinase still bound, per cent of control (RPS6KA6 KD1 (human)): 91%; kinase still bound, per cent of control (STK10 (human)): 57%; kinase still bound, per cent of control (STK16 (human)): 3%; kinase still bound, per cent of control (STK24 (human)): 82%; kinase still bound, per cent of control (STK38L (human)): 96%; kinase still bound, per cent of control (STK4 (human)): 76%; kinase still bound, per cent of control (TNK1 (human)): 100%; kinase still bound, per cent of control [4]: 40%
CN(C)C/C=C/C(=O)Nc1cccc(Nc2ncc3c(n2)N(C)c2ccccc2C(=O)N3C)c1 | 0.75% | 39% | 100% | 100% | 80% | 100% | 100% | 0.5% | 62% | 55% | 90% | 13% | 12% | 4.2% | 13% | 7.4% | 71% | 13% | 50% | 80% | kinase still bound, per cent of control (MLTK (human)): 79%; kinase still bound, per cent of control (MYO3B (human)): 100%; kinase still bound, per cent of control (NEK5 (human)): 58%; kinase still bound, per cent of control (NTRK3 (human)): 16%; kinase still bound, per cent of control (PIP5K1A (human)): 9.9%; kinase still bound, per cent of control (PKN1 (human)): 69%; kinase still bound, per cent of control (PKN2 (human)): 64%; kinase still bound, per cent of control (PRKAA2 (human)): 1.4%; kinase still bound, per cent of control (PRKCE (human)): 67%; kinase still bound, per cent of control (PRKG2 (human)): 81%; kinase still bound, per cent of control (PTK2B (human)): 74%; kinase still bound, per cent of control (RPS6KA4 KD2 (human)): 70%; kinase still bound, per cent of control (RPS6KA6 KD1 (human)): 9.2%; kinase still bound, per cent of control (STK10 (human)): 30%; kinase still bound, per cent of control (STK16 (human)): 8.4%; kinase still bound, per cent of control (STK24 (human)): 98%; kinase still bound, per cent of control (STK38L (human)): 54%; kinase still bound, per cent of control (STK4 (human)): 49%; kinase still bound, per cent of control (TNK1 (human)): 0.4%; kinase still bound, per cent of control [4]: 5%
